Drawing on patent EP0555537B1, “Endothelin antagonists” (BANYU PHARMACEUTICAL CO., LTD., priority 1991, dated 1993), this text covers inhibition for 17 compounds.

Numbered stars: 1 amine (or outer) side, 2 acyl side, 3 side chain; on linkers, the order of the positions; unused ones are H or OH. Square brackets hold non-standard residues; d marks the D form. Peptide text beside a SMILES is read from it. * marks the point of attachment. dNle = CCCC[C@@H](N)C(=O)O; Piperidide = C1CCN(*)CC1; Pyrrolidide = C1CCN(*)C1; dAbu = CC[C@@H](N)C(=O)O; Boc = CC(C)(C)OC(=O)*; CO = O=C([*:1])[*:2]; NHtBu = CC(C)(C)N*; Moc = COC(=O)*

The target in the test is T1, ETB receptor (Sus scrofa, UniProt P35463).
T1 construct: ETB receptors of porcine cerebellum membrane suspension used in the present experiments; from tissue; host or cells: porcine cerebellum membrane fraction
T1 sequence (P35463 27-443): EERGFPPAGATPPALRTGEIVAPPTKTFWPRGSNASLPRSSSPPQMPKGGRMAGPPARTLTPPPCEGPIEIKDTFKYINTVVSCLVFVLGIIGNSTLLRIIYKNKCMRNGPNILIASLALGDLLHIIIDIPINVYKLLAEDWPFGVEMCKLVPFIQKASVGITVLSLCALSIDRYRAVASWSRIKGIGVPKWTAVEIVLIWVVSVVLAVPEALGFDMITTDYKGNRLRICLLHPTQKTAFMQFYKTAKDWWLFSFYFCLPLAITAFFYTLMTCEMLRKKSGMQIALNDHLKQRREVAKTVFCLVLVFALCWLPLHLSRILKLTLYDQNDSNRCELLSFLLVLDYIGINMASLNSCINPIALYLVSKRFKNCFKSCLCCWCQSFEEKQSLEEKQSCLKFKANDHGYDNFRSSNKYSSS
Kind of test: Endothelin binding inhibition test (^125I-endothelin-1, porcine cerebellum membrane suspension). Particulars: 1.1 µM of the test compound, triplicate. On the procedure:
The cerebellum of porcine was homogenized in a buffer solution of 10 mM MOPS, pH 7.4, at 4°C by a polytron. To the homogenate, sucrose was added to a concentration of 20%, and the mixture was centrifuged at 1,000 x g for 15 minutes, and the supernatant was further centrifuged at 10,000 x g for 15 minutes. The supernatant thereof was further centrifuged at 90,000 x g for 40 minutes. The membrane precipitate thereby obtained was suspended in a buffer solution of 5 mM HEPES/Tris, pH 7.4, at a concentration of 3.3 mg/ml.
Then, 16 µl of this membrane suspension was added to 340 µl of 50 mM tris/HCl buffer, pH 7.4, containing […] calcium chloride, 10 µM magnesium chloride, 0.1 mM PMSF, 1 µM pepstatin A, 2 µM leupeptin, 1 mM 1,10-phenanthroline and 0.1% bovine serum albumin. To this suspension, 4 µl of (A) endothelin-1 (for nonspecific binding; 0.2 µM as the final concentration), (B) buffer solution A (for total control binding), or (C) a test compound (1.1 µM as the final concentration), was added. Further, to each suspension, 40 µl of ^125I-endothelin-1 (12000-18000 cpm) was added. These mixtures were incubated at 25°C for 4 hours, then subjected to filtration on a glass filter GF/C and then washed with 5 mM HEPES/Tris, pH 7.4, containing 0.3% bovine serum albumin. Then, the radioactivity trapped by the glass filter was measured, and the ^125I-endothelin-1 binding inhibition D (%) at 1.1 µM of the test compound was determined by the following equation. D(%) = 100 -((C) - (A))/((B) - (A))× 100 [formula]
Each test was performed in triplicate.
The test compounds are indicated by compound Nos.

For `CCCC[C@@H](NC(=O)[C@@H](Cc1cn(C(=O)OC)c2ccccc12)NC(=O)[C@H](CC(C)C)NC(=O)Nc1ccccc1Cl)C(=O)O` [Compound 1], the inhibition (as a rule, how much of the control response was suppressed) at 1.1 µM was determined as 99%.

Regarding `CCCC[C@@H](NC(=O)[C@@H](Cc1cn(C(=O)OCC)c2ccccc12)NC(=O)[C@H](CC(C)C)NC(=O)Nc1ccccc1Cl)C(=O)O` [Compound 2], the inhibition at 1.1 µM stood at 97%.

With `CCCC[C@@H](NC(=O)[C@@H](Cc1cn(C(=O)OC)c2ccccc12)NC(=O)[C@H](CC(C)C)NC(=O)Nc1c(Cl)cccc1Cl)C(=O)O` [Compound 3], the inhibition at 1.1 µM was determined as 94%.

As for `CCCC[C@@H](NC(=O)[C@@H](Cc1cn(C(=O)OC)c2ccccc12)NC(=O)[C@H](CC(C)C)NC(=O)N1CCCCCC1)C(=O)O` [Compound 9], the inhibition at 1.1 µM worked out at 99%.

In turn, `CCCC[C@@H](NC(=O)[C@@H](Cc1cn(C(=O)OC)c2ccccc12)NC(=O)[C@H](CC(C)C)NC(=O)N1CCSCC1)C(=O)O` [Compound 10] had an inhibition at 1.1 µM of 89%.

Take `CCCC[C@@H](NC(=O)[C@@H](Cc1cn(C(=O)OC)c2ccccc12)NC(=O)[C@H](CC(C)C)NC(=O)N1CCCC1)C(=O)O` [Compound 11] ({Pyrrolidide-CO}-Leu-[dW](Moc)-[dNle]-OH): the inhibition at 1.1 µM worked out at 73%.

As to `CCCC[C@@H](NC(=O)[C@@H](Cc1cn(C(=O)OC)c2ccccc12)NC(=O)[C@H](CC(C)C)NC(=O)N1CCCCC1)C(=O)O` [Compound 12] ({Piperidide-CO}-Leu-[dW](Moc)-[dNle]-OH), the inhibition at 1.1 µM was found to be 96%.

With `CCCC[C@@H](NC(=O)[C@@H](Cc1cn(C(=O)OC)c2ccccc12)NC(=O)[C@H](CC(C)C)NC(=O)N1CCSC1)C(=O)O` [Compound 13], 1.1 µM produced 72% inhibition.

As to `CCCC[C@@H](NC(=O)[C@@H](Cc1cn(C(=O)OC)c2ccccc12)NC(=O)[C@H](CC(C)C)NC(=O)N(C(C)C)C(C)C)C(=O)O` [Compound 14], the inhibition at 1.1 µM amounted to 99%.

As for `CCCC[C@@H](NC(=O)[C@@H](Cc1cn(C(=O)OC)c2ccccc12)NC(=O)[C@H](CC(C)C)NC(=O)N(CCC)C1CCCC1)C(=O)O` [Compound 17], 1.1 µM produced 95% inhibition.

`CCCC[C@@H](NC(=O)[C@@H](Cc1cn(C(=O)OC)c2ccccc12)NC(=O)[C@H](CC(C)C)NC(=O)NC12CC3CC(CC(C3)C1)C2)C(=O)O` [Compound 25] had an inhibition at 1.1 µM of 97%.

Compound `CC[C@@H](NC(=O)[C@@H](Cc1cn(C(=O)OC)c2ccccc12)NC(=O)[C@H](CC(C)C)NC(=O)OC(C)(C)C)C(=O)O` [Compound 26] (Boc-Leu-[dW](Moc)-[dAbu]-OH) gave an inhibition at 1.1 µM of 71%.

`CCCC[C@@H](NC(=O)[C@@H](Cc1cn(C(=O)OC)c2ccccc12)NC(=O)[C@H](CC(C)C)NC(=O)NC(C)(C)C)C(=O)O` [Compound 27] ({NHtBu-CO}-Leu-[dW](Moc)-[dNle]-OH) returned an inhibition at 1.1 µM of 91%.

Take `CCCC[C@@H](NC(=O)[C@@H](Cc1cn(C(=O)OC)c2ccccc12)NC(=O)[C@H](CC(C)C)NC(=O)N1CCCCCCC1)C(=O)OC(C)(C)C` [Compound 28]: the inhibition at 1.1 µM turned out to be 92%.

`CCCC[C@@H](NC(=O)[C@@H](Cc1cn(C(=O)OC)c2ccccc12)NC(=O)[C@H](CC(C)C)NC(=O)N1CCCCCCC1)C(=O)O` [Compound 29] came in with an inhibition at 1.1 µM of 99%.

`CCCC[C@@H](NC(=O)[C@@H](Cc1c(Cl)[nH]c2ccccc12)NC(=O)[C@H](CC(C)C)NC(=O)N1C(C)CCCC1C)C(=O)O` (some centres unmarked) [Compound 67] returned an inhibition at 1.1 µM of 97%.

Compound `CCCC[C@@H](NC(=O)[C@@H](Cc1c(Cl)[nH]c2ccccc12)NC(=O)[C@H](CC(C)C)NC(=O)N1CCCCCC1)C(=O)O` [Compound 68] had an inhibition at 1.1 µM of 93%.
